Laboratory results from US10907219B2, “Compositions and methods for controlling cellular function” (STC.UNM, priority 2014, dated 2021).
Values belong to the compound of their own block, whether it stands above or below them.

Experiments:
[1] = tested on: CHO cells transfected with ABA-inducible luciferase constructs; assay: ABA-inducible luciferase assay; format: cell-based; details: 10 μM (mixture 10 μM each), 24 hours
[2] = Chemical stability of ABA-Fe molecules (HPLC); format: physicochemical; details: 100 μM, 50% HEPES/DMSO pH 7.4, 37° C., one hour
Experimental: Chemical stability of ABA-Fe molecules: 100 μM ABA-Fe (in 50% HEPES/DMSO buffer, pH=7.4) was incubated at 37° C. for one hour before HPLC detection. The percentages for molecule cleavage were quantified by the peak area of ABA out of the total peak area.
(§1) HPLC chromatograms were acquired using an ULTIMATE 3000 LC System (Thermo Fisher Scientific, Waltham, Mass.) with ACCLAIM 120 Å, C18, 3 μm analytical (4.6×100 mm) column (Thermo Fisher Scientific, Waltham, Mass.). Chromatographic conditions: eluent A: 0.1% v/v TFA in water; eluent B: 0.1% v/v TFA in acetonitrile. ABA in ethanol or ABA-HP in DMSO was eluted at a flow rate of 0.750 ml/min monitored at a wavelength of 260 nm. 0-12 min (linear): 95% A, 5% B to 5% A, 95% B; 12-15 min: 5% A, 95% B; 15-17 min (linear): 5% A, 95% B to 95% A, 5% B. Generation of ABA was quantified by the peak area of ABA out of the total peak area.

[3] = ABA-Fe reactivity and selectivity towards Fe^2+ (HPLC); format: physicochemical; details: 37° C., one hour
Experimental: ABA-Fe reactivity and selectivity towards Fe^2+: 100 μM ABA-Fe with 1 mM Fe^2+ (in 50% HEPES/DMSO buffer, pH=7.4), and 100 μM ABA-Fe with 1 mM Fe^3+ (in 50% HEPES/DMSO buffer, pH=7.4) were incubated at 37° C. for one hour before HPLC detection. The percentages for molecule cleavage were quantified by the peak area of ABA out of the total peak area.
as §1

[4] = tested on: HEK 293 EGFP reporter cells; assay: Cell stability of ABA-Fe molecules; format: cell-based
Experimental: Mammalian Cell Culture: HEK 293 EGFP reporter cells were cultured in Dulbecco's modified Eagle's medium (DMEM, GIBCO, Life Technologies, Carlsbad, Calif.) with 10% Fetal Bovine Serum (FBS, GIBCO, Life Technologies, Carlsbad, Calif.), 1× […] (100× from GIBCO, Life Technologies, Carlsbad, Calif.), and 1× Penicillin/Streptomycin (Pen/Strep, 100× from GIBCO, Life Technologies, Carlsbad, Calif.). Cells were plated with the starting concentration of 200,000 cells per well in a 24-well plate (Greiner Bio-One GmbH; Frickenhausen, Germany) for a day, and then were treated with either 10 μM of ABA-Fe and 20 μM of DFO, 10 μM of ABA-Fe only, or 10 μM of ABA-Fe and 100 μM of Fe^2+ aqueous solution.
Imagines for green fluorescence were taken for living cells every two hours after adding in those molecules by microscopy illumination system (Axio Observer; Carl Zeiss AG, Oberkochen, Germany). Each type of the experiment was carried out as duplex.

Source text for transfected cells: A concern of using UV-triggered reactions in cells is phototoxicity.

Compound: CC1=CC(=O)CC(C)(C)C1(O)/C=C/C(C)=C/C(=O)O (single isomer, unassigned) [2-trans isomer]
- induced luciferase expression (activity of ABA isomers) [1]: reduced activity

- chemical stability [2]: chemically stable
- selectivity towards Fe^2+ vs Fe^3+ ([3]; 100 μM with 1 mM Fe^2+ or Fe^3+): exhibits selectivity
- reactivity (cleavage) towards Fe^2+ ([3]; 100 μM with 1 mM Fe^2+): exhibits Fe^2+ reactivity
- stability in cells [4]: stable in cells
Compound: CC1=CC(=O)CC(C)(C)[C@@]1(O)/C=C/C(C)=C\C(=O)ONC(C)c1ccccc1 (stereo partly drawn) [Compound 8]

Compound: dimethoxynitrosobenzaldehyde [DMNB-derived photoproduct]
- toxicity (transfected cells): does not cause observable toxicity
